Assay results: US5554359A, “Pigmentation enhancer and method” (priority 1994, dated 1996)

Assays:
[1] = test system: melanin in human melanocytes; experiment: Melanin content in human melanocytes; format: cell-based
Description: (§1) The mouse melanoma cell lines used to study the effects of lysosomotropic agents herein were the Cloudman S91 cell line (ATCC no. CCL 53.1) and two subclones of this line developed in our laboratory, the amelanotic line, AM-7, and a melanotic line, MEL-11A. All melanoma cell lines were grown in Ham's F-10 nutrient medium supplemented with 10% horse serum, penicillin (100 units/ml), and streptomycin (100 μg/ml). The normal human melanocyte cell strains used in this study were derived from foreskins of either neonares or from boys 2-6 years old. Human melanocyte cultures were grown in Ham's F-10 nutrient medium supplemented with 10% horse serum, 5% fetal bovine serum (FBS), 32 nM TPA (12-O-tetradecanoylphorbol 13-acetate), 10^-4 M IBMX(3-isobutyl-1-methylxanthine), penicillin (100 units/ml), and streptomycin (100 μg/ml).
The amount of melanin in melanoma cells or in melanocytes was determined by incubating cell pellets in 2 ml of 1-N NaOH for 48 hours at 37° C. and then measuring the solubilized melanin at 400 nm.
(§2) Dose/response parameters for ammonium chloride action were determined. […] Since tyrosinase is the rate-limiting enzyme for melanin synthesis, the stimulation of this enzyme by ammonium chloride should lead to increased melanin content of stimulated cells. […] Ammonium chloride increased tyrosinase activity in melanocytes from white-skinned individuals twenty-fold within 24 hours and by this time melanin contents had increased two-fold. Two other lysosomotropic agents, monensin and nigericin, were tested for their effects on tyrosinase activity. […] Thus, lysosomotropic agents have the ability to stimulate tyrosinase activity and melanin production in human melanocytes derived from white-skinned individuals, and to reduce melanin production in melanocytes from black-skinned people.

[2] = test system: tyrosinase activity in human foreskin organ cultures; experiment: Tyrosinase activity in human foreskin organ cultures (tyrosine hydroxylase assay); format: cell-based; settings: Table 2; 0.1 mM; 72 h; control 3.15 ± 0.1; triplicate ± s.d.
Description: At the time of surgical removal, human foreskins were placed on sterile gauze saturated with sterile IMDM medium (Iscove's modified Dulbecco's medium purchased from Irvine Scientific of Santa Ana, Calif.) for transportation from the Hospital nursery to the laboratory. The tissues were rinsed in sterile IMDM medium containing 500 U/ml penicillin and 500 μg/ml of streptomycin for 5 minutes. Under sterile conditions, an intradermal injection of medium was performed from the dermal side prior to dissection of the mucous membrane and lower dermis by scissors to make the thickness of skins equal. The foreskins were then cut into approximately 3 mm×3 mm squares and either frozen at -75° C. or placed in organ culture as described hereafter.
The organ culture medium was prepared from IMDM with glutamine supplemented with 20% horse serum, 5% fetal bovine serum, 100 U/ml penicillin, 100 μg/ml streptomycin and 3 mg/ml sodium bicarbonate. The serums were obtained from Hyclone Lab. Inc. of Logan Utah. Culture units were prepared by placing sterilized filters (AP20 025 00, Millipore) over sterilized support screens ([…] Swinnex filter support screens, Millipore) in the wells of 6-well tissue culture plates (Falcon 3046) with medium added to the wells such that the skin support screens floated and the filter absorbed the medium from beneath. The tissue samples were placed, epidermis up, on top of the saturated filters and incubated at 37° C. in a 5% CO2 humidified atmosphere. The medium was changed everyday. Harvested cultures were frozen at -75° C.
Tyrosinase activity in human skin organ cultures was determined by measuring the tyrosine hydroxylase activity of the enzyme. The assay measures the production of ^3 H2 O during the conversion of [^3 H]tyrosine to L-DOPA. Weighed skin preparations were incubated in 0.3 ml of a reaction mixture containing 0.01 mM of L-tyrosine, 5-6 uCi/ml of [^3 H]tyrosine and 0.1 mM L-DOPA in 0.1M of pH 6.8 phosphate buffer for 4 hours at 37° C. To terminate the reaction, 1 ml of phosphate buffer was added, the tubes vortexed, and 0.4 ml aliquots removed in triplicate and mixed with an equal volume of Norit SG activated charcoal (10% w/v, in 0.1N HCl). Following centrifugation at 2000×g for 10 min, the supernatants (0.5 ml) were placed in scintillation vials, scintillation fluid added, and vials counted in a TM Analytic 6895 scintillation counter equipped with a DPM processor.
Human foreskins were treated with the compounds shown in Table 1, placed in culture, and incubated for 72 hours. The skins were then assayed for tyrosinase activity with the tyrosine hydroxylase assay method as described herein.
The medium and compounds were changed daily. Tyrosinase activity was determined by measuring the tyrosine hydroxylase activity of the enzyme.
Human foreskin organ cultures were treated with the compounds listed in Table 3 for 3 days and tyrosinase activity determined as described herein. Theophylline was used at 1 mM.

[3] = test system: tyrosinase activity in mouse melanoma cells; settings: Cloudman S91; cited from earlier work
[4] = test system: tyrosinase abundance in mouse melanoma cells; settings: other studies; cited from earlier work
tyrosinase mRNA = settings: three days; melanocyte cultures; cited from earlier work
[5] = test system: melanin in human melanocytes; settings: three days; melanocyte cultures; cited from earlier work
[6] = test system: tyrosinase activity in mouse melanoma cells; experiment: Tyrosinase responses in mouse melanoma cells (Table 6); format: cell-based; settings: for Effect on Tyrosinase Activity, Mouse Melanoma: Table 6, 10^-7 M except IBMX 10^-4 M, theophylline 1 mM, ammonium chloride 10 mM, A23187 not given
Description: as §1
To determine tyrosinase activity in situ in either melanoma cells or in human melanocyte cultures, the tyrosine hydroxylase activity of the enzyme was determined. Cells were seeded into 60-mm culture dishes at 2×10^5 cells/dish and allowed to attach overnight. The medium was then exchanged for the appropriate growth medium supplemented with 1 μCi/ml of [^3 H]tyrosine (L-ring-3,5-^3 H]-tyrosine, DuPont New England Nuclear), and with hormones, where indicated. Cells were grown in labeled medium for 24 hours, and at this time, the medium was removed and assayed for the presence of ^3 H2 O using the charcoal absorption method of Pomerantz. Tyrosinase activity in cell homogenates was determined by sonicating cell pellets in 0.1-M sodium phosphate buffer (pH 6.8) and then incubating 50-μl aliquots in 0.5 ml of a reaction mixture containing 0.1-mM tyrosine, 2 μCi/ml of [^3 H]tyrosine, 0.1-mM L-DOPA (dihydroxyphenylalanine), and 0.1 mM PMSF (phenylmethylsulfonyl fluoride) at 37° C. for 2 hours. Reactions were terminated by the addition of 1 ml of charcoal (10% w/v in 0.1-N HCl). Samples were centrifuged, and the supernatants removed for determination of the amount of ^3 H2 O produced. […]

[7] = test system: tyrosinase activity in human melanocytes; experiment: Tyrosinase responses in human melanocytes (Table 6); format: cell-based
Description: as §1
(§3) To determine tyrosinase activity in situ in either melanoma cells or in human melanocyte cultures, the tyrosine hydroxylase activity of the enzyme was determined. Cells were seeded into 60-mm culture dishes at 2×10^5 cells/dish and allowed to attach overnight. The medium was then exchanged for the appropriate growth medium supplemented with 1 μCi/ml of [^3 H]tyrosine (L-ring-3,5-^3 H]-tyrosine, DuPont New England Nuclear), and with hormones, where indicated. Cells were grown in labeled medium for 24 hours, and at this time, the medium was removed and assayed for the presence of ^3 H2 O using the charcoal absorption method of Pomerantz. Tyrosinase activity in cell homogenates was determined by sonicating cell pellets in 0.1-M sodium phosphate buffer (pH 6.8) and then incubating 50-μl aliquots in 0.5 ml of a reaction mixture containing 0.1-mM tyrosine, 2 μCi/ml of [^3 H]tyrosine, 0.1-mM L-DOPA (dihydroxyphenylalanine), and 0.1 mM PMSF (phenylmethylsulfonyl fluoride) at 37° C. for 2 hours. Reactions were terminated by the addition of 1 ml of charcoal (10% w/v in 0.1-N HCl). Samples were centrifuged, and the supernatants removed for determination of the amount of ^3 H2 O produced.
Hormone responsiveness in human melanocyte cell cultures were examined (for these studies, melanocytes derived from skin type III were used). […] Tyrosinase activity and melanin content typically double with a 48-hour exposure to IBMX. […] The steroid hormones, for the most part, caused little, if any, change in tyrosinase activity at the concentrations used.

[8] = test system: tyrosinase activity in AM-7 cells; experiment: Tyrosinase activity in amelanotic mouse melanoma clone AM-7; format: cell-based
Description: as §1
(§4) To determine tyrosinase activity in situ in either melanoma cells or in human melanocyte cultures, the tyrosine hydroxylase activity of the enzyme was determined. […] Tyrosinase activity in cell homogenates was determined by sonicating cell pellets in 0.1-M sodium phosphate buffer (pH 6.8) and then incubating 50-μl aliquots in 0.5 ml of a reaction mixture containing 0.1-mM tyrosine, 2 μCi/ml of [^3 H]tyrosine, 0.1-mM L-DOPA (dihydroxyphenylalanine), and 0.1 mM PMSF (phenylmethylsulfonyl fluoride) at 37° C. for 2 hours. […]

[9] = test system: tyrosinase activity in human melanocytes from white-skinned individuals; experiment: Tyrosinase activity in human melanocytes from white skin; format: cell-based
Description: as §1, §3, §2

[10] = test system: tyrosinase activity in MEL-11A cells; experiment: Tyrosinase activity in melanotic mouse melanoma clone MEL-11A; format: cell-based; settings: MSH 10^-7 M or ammonium chloride 10 mM; 24 h; FIG. 4 bottom
Description: as §1, §4

[11] = test system: tyrosinase activity in human melanocytes from black individuals; experiment: Tyrosinase activity in human melanocytes from black skin; format: cell-based; settings: 10 mM
Description: The mouse melanoma cell lines used to study the effects of lysosomotropic agents herein were the Cloudman S91 cell line (ATCC no. CCL 53.1) and two subclones of this line developed in our laboratory, the amelanotic line, AM-7, and a melanotic line, MEL-11A. All melanoma cell lines were grown in Ham's F-10 nutrient medium supplemented with 10% horse serum, penicillin (100 units/ml), and streptomycin (100 μg/ml). The normal human melanocyte cell strains used in this study were derived from foreskins of either neonares or from boys 2-6 years old. […]
as §4
Dose/response parameters for ammonium chloride action were determined. […]

[12] = test system: tyrosinase activity in mouse melanoma cells; settings: e.g., 10^-5 M; footnote b of Table 6; cited from earlier work
[13] = within 24 hours, white-skinned individuals

## CC(C)Cn1c(=O)n(C)c(=O)c2[nH]cnc21 [IBMX, 3-isobutyl-1-methylxanthine]
[1]; 48-hour exposure, IBMX
  melanin content: double
[2]
  Tyrosinase Activity: 7.03 ± 0.49 pmoles ^3 H2 O/hour/mg skin
[3]
  mimicking of the MSH response: mimicked
[4]
  tyrosinase activity correlates with enzyme abundance: correlates with an increase in enzyme abundance
Tyrosinase mRNA
  change in amount of tyrosinase mRNA: not accompanied by any increase
[5]
  increase in melanin production: fourfold increase
[6]; compounds that raise intracellular cAMP levels or MSH
  response of mouse melanoma cells: respond vigorously
[7]; 48-hour exposure, IBMX
  Tyrosinase Activity: double
[7]; Homo sapiens, Melanocyte, Table 6, 10^-7 M except IBMX 10^-4 M, theophylline 1 mM, ammonium chloride 10 mM, A23187 not given, melanocytes from skin type III, read-out: Effect on Tyrosinase Activity, Human Melanocyte
  activity at 100 µM: 150 to 200%

## Cl.N [Ammonium chloride, ammonium chloride]
[1]; 10 mM, 3 days, cell strain 69W, FIG. 7
  melanin versus untreated cells: twice as much melanin than untreated cells
[1]; [13]
  increase in melanin contents: two-fold
[8]; 10 mM ammonium chloride with or without cycloheximide, data not shown
  stimulation of tyrosinase activity in presence of cycloheximide: stimulation occurred in cells treated with or without cycloheximide
[8]; 10 mM ammonium chloride, 24 h, FIG. 4 top
  increase in tyrosinase activity: two-fold increase
[6]
  Effect on Tyrosinase Activity, Mouse Melanoma: ++ (>300%)
[6]; Table 6 text
  tyrosinase activity in mouse melanoma cells: stimulates tyrosinase activity
[9]; 10 mM, 48 hours, cell strain #84W, FIG. 5
  Tyrosinase Activity: markedly elevated
[9]; 10 mM, footnote c of Table 6
  tyrosinase activity in melanocytes derived from white skin: stimulates tyrosinase activity
[9]; cell strain 69W, 48 hours, FIG. 6
  concentration of maximal stimulation of tyrosinase activity: 7.5 mM
[9]; cell strain 69W, up to four hours, FIG. 8
  stimulation of tyrosinase activity: effective in stimulating tyrosinase activity
[9]; [13]
  increase in tyrosinase activity: twenty-fold
[10]
  increase in tyrosinase activity: four-fold increase
[11]; 48 hours, cell strain #90A6, FIG. 5
  Tyrosinase Activity: depressed
[11]; black skin types, footnote c of Table 6
  tyrosinase activity in highly melanized melanocytes: markedly inhibite
[7]; Table 6 text
  tyrosinase activity in human melanocytes: stimulates tyrosinase activity

## CC1=C(/C=C/C(C)=C/C=C/C(C)=C/C(=O)O)C(C)(C)CCC1 [Retinoic Acid, all-trans]
[12]
  effect on tyrosine activity at higher concentrations: stimulate tyrosine activity
[6]
  Effect on Tyrosinase Activity, Mouse Melanoma: Inhibited
[7]; Table 6, 10^-7 M except IBMX 10^-4 M, theophylline 1 mM, ammonium chloride 10 mM, A23187 not given, melanocytes from skin type III
  Effect on Tyrosinase Activity, Human Melanocyte: Inhibited
